Key:
[1] = test system: mouse eyes treated with −15D spectacle lens; assay: spectacle lens-induced myopia in mice, axial length and refractive error; format: in vivo; settings: lens with 0.1% drug; for axial length: 2 weeks and 4 weeks, vs lens treated eyes; for refractive error: infrared photorefractor
Method: Topical applications were administered to both eyes at the same time each day (approximately 9:00 AM) commencing on the 12th day (initiation of spectacle lens treatment). A compatible drug level was determined prior to the in vivo use in a tissue culture study with mouse scleral fibroblasts. […] This treatment schedule continued for four weeks starting on post-natal day 12 continued until post-natal day 42. All measurements were taken at post-natal day 42, the equivalent of 4 weeks of spectacle lens wear.
Each eye was refracted every week to measure the refractive error using automated infrared photorefraction as described in Barathi, V. A., Beuerman, R. W., Schaeffel, F., 2009a, “Effects of unilateral topical atropine on binocular pupil responses and eye growth in mice”, Vision Res 49, 383-387. By using Optical Low Coherence Interferometry (OLCI, AC Master, Carl-Zeiss), the axial length of the eye was measured in-vivo as described in Yin G C, Gentle A, McBrien N A, “Muscarinic antagonist control of myopia: a molecular search for the M1 receptor in chick”, Mol. Vis. 2004; 13(10):787-93 and Barathi, V. A., Boopathi, V. G., Yap, E. P., Beuerman, R. W., 2008, “Two models of experimental myopia in the mouse”, Vision Res 48, 904-916. […] Differences of refractive power and axial length between eyes were calculated. Independent t-tests were used to compare experimental and control eyes in wild type and TGM2-deleted or M1-M5 mutant mice.
Right eyes were experimental and left eyes served as contra-lateral control. In vivo axial length was measured at 2 weeks and 4 weeks after treatment. […] Automated infrared photorefractor was used to measure the refractive error measurements.

[2] = test system: TG-2; assay: TG-2 colorimetric microassay (transamidase activity) in lysate of treated human scleral fibroblasts; format: cell-based; settings: for transamidase activity of endogenous cellular TG-2: human scleral fibroblasts, 0.1, 1, 10 and 100 μM for 5 days, concentration-dependent
Method: (§1) All cells used in examples described herein were between passages 2-4. Passaged cells were plated at a concentration of 2×10^5/mL into 6 well plates containing DMEM with 10% FBS. […] Old media was removed from wells and 1 mL of drug was added with fresh full medium and incubated at 37° C. Fresh drugs were replaced daily consecutively for the next 5 days to avoid oxidation. The drugs/media was removed and wells were washed twice with 1×PBS. 200 μl of RIPA lysis buffer was added per well and incubated for 5 minutes and cells were scrapped into an eppendorf tube. The cells were stored at −20° C. until sonication. The cells were sonicated on ice thrice at 20% output power for 5 seconds each time and rested 1 minute in between each turn. Cell debris was spun down at 12000 rpm for 20 minutes. The supernatant was poured into a new eppendorf tube and cell concentrations were determined using the Dc Protein assay Kit (Bio-Rad, MA). Passaged cells were plated at a concentration of 1×10^5 into 6 well plates containing DMEM with 10% FBS. […] Freshly prepared muscarinic agents' at base line, 0.1, 1, 10 and 100 μM concentrations were added for 5 days (Table 2). The culture medium was removed and fresh medium containing the same muscarinic drug added every day to avoid drug changes such as atropine oxidation. Cell lysate was collected for relative quantitative (q) PCR and protein analysis at day 5.
(§2) This assay was designed to assess the cross-linking activity of TG-2 between two proteins. TG activity was measured with TG-2 colorimetric Microassay kit (TG-Covtest, Covalab, Cambridge, UK). 150-200 μg of total protein was used per well for the TG-2 assay. Transglutaminase standards (Sigma) were used as a positive control. EDTA was used to inhibit the enzyme activity as a negative control.
(§3) The approximate volume of reagents to use, the wavelengths to use to read absorbance, the incubation times were determined from a previous study that have carried out experiments with similar principles as described in Perez Alea M, Kitamura M, Martin G, Thomas V, Hitomi K, El Alaoui S., “Development of an isoenzyme-specific colorimetric assay for tissue transglutaminase 2 cross-linking activity”, Anal Biochem. 2009 Jun. 15; 389(2):150-6, Epub 2009 March 24. All reagents used and protein coated plates were part of the kit. Biotin cadaverine was reconstituted with 6 ml of deionized water and 90 μl was added into each well of the 96 well plate that comes coated with CBZ-GLN-GLY. The rest of the steps were followed as in the manufacturer's instructions and finally absorbance was read at 450 nm using a microplate reader (TECAN, Austria). All incubations were performed with gentle shaking on a laboratory orbital shaker.
(§4) The TG-2 colorimetric assay serves as a high throughput and quantitative assay to assess transamidase activity. […] In vivo studies with these drugs were also conducted to determine the effect on myopia development (see FIGS. 14 and 15).

[3] = test system: TG-2; assay: Western blot of TG proteins in mouse scleral fibroblasts after muscarinic agents; format: cell-based; settings: very low concentrations
Method: (§5) All cells used in examples described herein were between passages 2-4. Passaged cells were plated at a concentration of 2×10^5/mL into 6 well plates containing DMEM with 10% FBS. The cells were seen to attach to the bottom of the culture wells after 4 hours. Old media was removed from wells and 1 mL of drug was added with fresh full medium and incubated at 37° C. Fresh drugs were replaced daily consecutively for the next 5 days to avoid oxidation. The drugs/media was removed and wells were washed twice with 1×PBS. 200 μl of RIPA lysis buffer was added per well and incubated for 5 minutes and cells were scrapped into an eppendorf tube. The cells were stored at −20° C. until sonication. The cells were sonicated on ice thrice at 20% output power for 5 seconds each time and rested 1 minute in between each turn. Cell debris was spun down at 12000 rpm for 20 minutes. The supernatant was poured into a new eppendorf tube and cell concentrations were determined using the Dc Protein assay Kit (Bio-Rad, MA). Passaged cells were plated at a concentration of 1×10^5 into 6 well plates containing DMEM with 10% FBS. The cells were seen to attach to the bottom of the culture wells after 4 hours. Freshly prepared muscarinic agents' at base line, 0.1, 1, 10 and 100 μM concentrations were added for 5 days (Table 2). The culture medium was removed and fresh medium containing the same muscarinic drug added every day to avoid drug changes such as atropine oxidation. Cell lysate was collected for relative quantitative (q) PCR and protein analysis at day 5.
(§6) The cells were lysed by sonification in 1×RIPA lysis buffer (santa cruz biotechnology, Sc-24948) with 10 μl PMSF solution, 10 μl sodium orthovanadate solution and 20 μl protease inhibitor cocktail solution. After centrifugation at 20,000×g at 4° C. for 20 minutes, and the supernatant collected. The protein content in the supernatants was measured using the DC Protein Assay kit (Bio-Rad, MA) following the manufacturer's instructions. Samples were stored at −80° C. until assayed.
(§7) The mouse and human scleral fibroblasts were treated with atropine or carbachol at 0.01, 0.1, 1, 5 and 10 μM concentrations for 5 days. Following 5 days of treatment, the total cellular protein was extracted from these cells and TG proteins detected via Western blot analysis.
Human and, mouse scleral fibroblast proteins in the supernatant were separated by SDS-PAGE, transferred to nitrocellulose membranes, blocked in 5% BSA in TBST (10 mM Tris-HCl [pH 8.0], 150 mM NaCl, and […] Tween-20) for 2 hours at room temperature, and incubated with the same anti-TG-2 antibody described herein at a dilution of 1:1000 and anti β-tubulin antibodies used as a positive control, for 1 hour at room temperature. The membranes were washed 3 times in TBST and incubated with HRP-conjugated secondary antibody (Chemicon International) at a dilution of 1:2500 for 1 hour at room temperature. Immunoreactive bands were visualized using the enhanced chemiluminescence method (GE Healthcare, Buckinghamshire, UK). The membrane was wrapped in plastic and placed against an X-ray film to expose for an appropriate length of time (30 seconds-5 minutes).

[4] = test system: TG-2; assay: Western blot of TG proteins in human scleral fibroblasts after muscarinic agents; format: cell-based; settings: very low concentrations
Method: as §5, §6, §7
Human and, mouse scleral fibroblast proteins in the supernatant were separated by SDS-PAGE, transferred to nitrocellulose membranes, blocked in 5% BSA in TBST (10 mM Tris-HCl [pH 8.0], 150 mM NaCl, and […] Tween-20) for 2 hours at room temperature, and incubated with the same anti-TG-2 antibody described herein at a dilution of 1:1000 and anti β-tubulin antibodies used as a positive control, for 1 hour at room temperature. […]

[5] = test system: TG-2; assay: TG-2 colorimetric microassay (transamidase activity) in lysate of treated mouse scleral fibroblasts; format: cell-based; settings: for transamidase activity of endogenous cellular TG-2: mouse scleral fibroblasts, 0.1, 1, 10 and 100 μM for 5 days, concentration-dependent
Method: as §1, §2, §3, §4

[6] = test system: cultured SF cells; assay: effect of TG-2 inhibitors on cultured scleral fibroblast growth (XCELLigence); format: cell-based; settings: for SF cell growth and cell numbers: 0.1 μM, 5 days; for SF cell growth and cell numbers at higher concentrations: above 0.1 μM, concentration dependent manner
Method: To test the effect of TG-2 inhibitors on cultured scleral fibroblast growth, cultured SF cells at passage 4 were treated with TG-2 inhibitors at baseline, 0.1, 1, 10 and 100 μM for 5 days. The SF cell growth was monitored by XCELLigence cell impedance.

Compound | axial length [1] | refractive error [1] | transamidase activity of endogenous cellular TG-2 [2] | TG-2 protein level (reduction) [3] | TG-2 protein level (reduction) [4] | transamidase activity of endogenous cellular TG-2 [5] | SF cell growth and cell numbers [6] | SF cell growth and cell numbers at higher concentrations [6] | also measured
C[N+]1(C)CCC(OC(=O)C(c2ccccc2)c2ccccc2)CC1.[I-] [4-DAMP, 1,1-Dimethyl-4-diphenylacetoxypiperidinium iodide] | significantly reduced | shifted from myopic to hyperoic | reduced | significant | significant | reduced |  |  | 
CCN(CC)CC1CCCCN1CC(=O)N1c2ccccc2C(=O)Nc2cccnc21 (stereo not shown) [AFDX-116] |  |  | reduced |  |  | reduced |  |  | 
CC(=O)CSc1n(C)cc[n+]1C.[Cl-] [D003] |  |  |  |  |  |  | significantly reduced | further reduced | cell morphology [6]: No change
NC(=O)C(c1ccccc1)(c1ccccc1)[C@@H]1CCN(CCc2ccc3c(c2)CCO3)C1 [darifenacin] | significantly reduced | shifted from myopic to hyperoic | reduced | significant | significant | reduced |  |  | TG-2 activity, strongest reduction among the antagonists ([2]; human scleral fibroblasts, all concentrations): most significantly reduced; TG-2 activity, strongest reduction among the antagonists ([2]; human scleral fibroblasts, low concentrations): most significantly reduced; TG-2 activity as compared to atropine ([2]; human scleral fibroblasts, himbacine 0.1, 1, 10 & 100 μM, darifenacin 0.1, 1 & 10 μM): more significantly reduced; TG-2 activity, strongest reduction among the antagonists ([5]; mouse scleral fibroblasts, low concentrations): most significantly reduced
CN1CCN(CC(=O)N2c3ccccc3C(=O)Nc3cccnc32)CC1 [pirenzepine] |  |  | reduced |  |  | reduced |  |  | 
TAMRA-DON [R002] |  |  |  |  |  |  | significantly reduced | further reduced | 

From patent US20140050779A1, “[…]-2 INHIBITORS AND USES THEREOF” (SINGAPORE HEALTH SERVICES PTE. LTD., priority 2011, published 2014)
